Results: patent publication US6610729B1, “Hydroxamic acid derivatives and medicinal utilization thereof” (Mitsubishi Pharma Corporation, priority 1998, dated 2003)

Tests used:
[1] = Solubility in saline (0.9% aqueous sodium chloride solution) at 25° C.; format: physicochemical; settings: saline or isotonic
Description: The solubility of the Example compounds of the present invention in saline (0.9% aqueous sodium chloride solution) at 25° C. was measured.

[2] = system: release of TNF α from LPS treated human whole blood; test: Inhibitory activity of TNF α release from LPS treated human whole blood (ELISA); format: cell-based; settings: LPS treated human whole blood diluted 4-fold, 24 hr, 37° C., TNF α by ELISA
Description: The inhibitory effect of each compound (compounds of Examples 2, 6, 7, 10, 11, 37, 147, 231 and 245) on the release of TNF α from LPS treated human whole blood [see: Lymphokine Res 8, 141-146 (1989)] was investigated.
Human whole blood was diluted 4-fold with RPMI1640 medium supplemented with 10% FCS. The diluted blood was dispensed to a 96 multi-well plate by 100 μl and equilibrated under the conditions of 37° C., 5% CO2. LPS (2 μg/ml) was prepared with RPMI1640 medium supplemented with 10% FCS and a culture broth prepared by dissolving each compound (dissolved in dimethyl sulfoxide) in the LPS solution was added by 100 μl/well (final concentrated of dimethyl sulfoxide 0.1%), which was followed by incubation for 24 hr (37° C., 5% CO2). After the incubation, the reaction mixture was centrifuged (1,500 rpm, 5 min). The culture supernatant (40 μl/well) was collected, and TNF α amount in the supernatant was quantitatively measured by ELISA. The TNF α release inhibitory effect by each compound was calculated from the proportion of release TNF α amount of the compound addition group relitive to that of the compound non-addition group.

[3] = system: release of TNF α from THP-1 cells; test: Inhibitory activity of TNF α release from THP-1 cells (LPS, ELISA); format: cell-based; settings: Homo sapiens, 3 hr, 37° C., TNF α by ELISA
Description: The inhibitory effect of each compound (compounds of Examples 1, 2, 3, 6, 35, 39 and 44) on the release of TNF α from THP-1 cells which are monocyte cultured cells [see Nature 370, 218-220 (1994)] was investigated.
The THP-1 cells were suspended to a concentration of 1×10 ^6 cells/ml in RPMI1640 medium supplemented with 10% fetal calf serum (FCS) and dispensed by 100 μl. A 2 μg/ml LPS was prepared with RPMI1640 medium supplemented with 10% FCS. Each compound (dissolved in dimethyl sulfoxide) was diluted 500-fold with the LPS solution.
The diluted solutions of these compounds were added to the dispensed cell suspensions by 100 μl and allowed for 3 hr to react under the conditions of 37° C., 5% CO2. After the completion of the reaction, the reaction mixture was centrifuged and the culture supernatant was collected. The TNF α amount was quantitatively measured by ELISA (enzyme-linked immunosorbent assay). The TNF α release inhibitory effect by each compound was calculated from the proportion of released TNF α amount of the compound addition group relative to that of the compound non-addition group.

CC(C)C[C@@H](C(=O)N[C@@H](Cc1ccc(OS(=O)(=O)[O-])cc1)C(=O)c1ccco1)C(CN1C(=O)c2ccccc2C1=O)C(=O)NO.[Na+] (single isomer, unassigned) [Example 6, Sodium Salt of 3(R)-[1(S)-(2-furyl)carbonyl-2-[4-(hydroxysulfonyloxy)phenyl]]ethylcarbamoyl-5-methyl-2(R or S)-phthalimidomethylhexanohydroxamic Acid]
solubility [1]: > 20 mg/mL
IC50 [2]: 1390 nM
IC50 [3]: 660 nM
